{"source": "ChEMBL document CHEMBL1201862", "about": "“PubChem BioAssay data set” (2004)", "key": {"[1]": {"test": "Vero cell cytotoxicity, cytotoxicity control for M. tuberculosis inhibitor project, purified and synthesized samples, set 3 (AID 504684)", "assay_type": "functional", "details": "[…]"}, "[2]": {"test": "Vero cell cytotoxicity, dose response, cytotoxicity control for M. tuberculosis growth inhibitor project, Vero cells, purified and synthesized compounds, set 4 (AID 504854)", "assay_type": "functional", "details": "Mycobacterium tuberculosis"}, "[3]": {"test": "THP-1 cell cytotoxicity, cytotoxicity control, set 4 (AID 504911)", "assay_type": "functional", "details": "Mycobacterium tuberculosis"}, "[4]": {"test": "THP-1 cell cytotoxicity, dose response, cytotoxicity control, set 3 (AID 504852)", "assay_type": "functional", "details": "Mycobacterium tuberculosis"}, "[5]": {"biological_target": "5-hydroxytryptamine receptor 5A (Homo sapiens, UniProt P47898)", "sequence (P47898 whole entry)": "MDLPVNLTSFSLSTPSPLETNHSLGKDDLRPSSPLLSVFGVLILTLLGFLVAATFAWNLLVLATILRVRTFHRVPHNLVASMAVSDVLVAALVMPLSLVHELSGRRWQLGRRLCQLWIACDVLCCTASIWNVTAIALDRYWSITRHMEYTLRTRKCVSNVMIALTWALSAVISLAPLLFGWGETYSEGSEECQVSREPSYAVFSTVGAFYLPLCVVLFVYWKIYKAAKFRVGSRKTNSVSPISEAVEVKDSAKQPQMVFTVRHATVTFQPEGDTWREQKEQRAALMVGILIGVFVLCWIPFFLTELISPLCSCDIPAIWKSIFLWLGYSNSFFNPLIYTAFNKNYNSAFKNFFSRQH", "test": "Counterscreen for agonists of OPRM1-OPRD1 heterodimerization: luminescence-based cell-based high throughput dose response assay to identify agonists of 5-hydroxytryptamine (serotonin) 5A receptor (HTR5A). [Related pubchem assays (depositor defined):AID504326, AID504355, AID504692, AID504904, AID504905]", "assay_type": "functional"}, "[6]": {"test": "general mammalian cell viability loss – activator set, cherry-pick, cytotoxicity control for miR-122 modulator project, dose response (AID 720690);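 also: HEK293T human cells scored for general mammalian cytotoxicity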", "assay_type": "functional, cell-based"}, "[7]": {"biological_target": "Mu-type opioid receptor (Homo sapiens, UniProt P35372)", "sequence (P35372 whole entry)": "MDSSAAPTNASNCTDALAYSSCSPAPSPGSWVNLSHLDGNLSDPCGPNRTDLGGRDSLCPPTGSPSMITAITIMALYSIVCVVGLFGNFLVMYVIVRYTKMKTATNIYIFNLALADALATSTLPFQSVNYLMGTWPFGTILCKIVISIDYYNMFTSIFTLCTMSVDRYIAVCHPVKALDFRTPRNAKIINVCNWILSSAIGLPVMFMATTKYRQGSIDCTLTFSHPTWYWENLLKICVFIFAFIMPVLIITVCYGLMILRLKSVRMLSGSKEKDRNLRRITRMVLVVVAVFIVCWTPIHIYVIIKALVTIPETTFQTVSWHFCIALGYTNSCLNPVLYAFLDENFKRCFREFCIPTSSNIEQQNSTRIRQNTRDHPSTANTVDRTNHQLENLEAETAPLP", "test": "(§1) Counterscreen for agonists of heterodimerization of the mu 1 (OPRM1) and delta 1 (OPRD1) opioid receptors: Luminescence-based cell-based high throughput dose response assay to identify agonists of OPRM1 homodimerization.", "assay_type": "functional"}, "[8]": {"biological_target": "T1, High affinity choline transporter 1 (Homo sapiens, UniProt Q9GZV3)", "T1 sequence (Q9GZV3 whole entry)": "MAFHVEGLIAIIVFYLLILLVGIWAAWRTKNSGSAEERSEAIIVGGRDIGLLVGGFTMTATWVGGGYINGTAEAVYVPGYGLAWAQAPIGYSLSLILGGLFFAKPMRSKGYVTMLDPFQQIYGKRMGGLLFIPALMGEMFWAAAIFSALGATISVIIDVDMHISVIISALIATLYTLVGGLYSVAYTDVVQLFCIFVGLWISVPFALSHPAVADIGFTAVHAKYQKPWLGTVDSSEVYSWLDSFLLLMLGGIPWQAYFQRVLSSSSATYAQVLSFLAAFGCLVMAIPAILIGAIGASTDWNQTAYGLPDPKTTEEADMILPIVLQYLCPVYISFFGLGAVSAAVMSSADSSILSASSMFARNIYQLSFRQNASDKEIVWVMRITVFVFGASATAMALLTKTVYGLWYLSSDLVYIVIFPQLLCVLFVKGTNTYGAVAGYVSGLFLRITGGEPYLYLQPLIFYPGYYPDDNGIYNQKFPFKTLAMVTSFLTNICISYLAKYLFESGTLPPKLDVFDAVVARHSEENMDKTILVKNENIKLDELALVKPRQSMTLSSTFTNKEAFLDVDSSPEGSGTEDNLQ", "test": "human choline transporter potentiators, potency – cell-based, 10-point CRC, membrane potential dye, dose response (AID 602376)", "assay_type": "functional"}, "[9]": {"biological_target": "Delta-type opioid receptor (Homo sapiens, UniProt P41143)", "test": "as §1, with “of OPRD1” for “of OPRM1”, “homodimerization. [Related pubchem assays (depositor defined):AID504326, AID504355, AID504692, AID504904, AID504905]” for “homodimerization.”", "assay_type": "functional"}, "[10]": {"biological_target": "Dual specificity tyrosine-phosphorylation-regulated kinase 1A (Rattus norvegicus, UniProt Q63470)", "assay_type": "biochemical, Homo sapiens"}, "[11]": {"biological_target": "Protein disulfide-isomerase (Homo sapiens, UniProt P07237)", "sequence (P07237 whole entry)": "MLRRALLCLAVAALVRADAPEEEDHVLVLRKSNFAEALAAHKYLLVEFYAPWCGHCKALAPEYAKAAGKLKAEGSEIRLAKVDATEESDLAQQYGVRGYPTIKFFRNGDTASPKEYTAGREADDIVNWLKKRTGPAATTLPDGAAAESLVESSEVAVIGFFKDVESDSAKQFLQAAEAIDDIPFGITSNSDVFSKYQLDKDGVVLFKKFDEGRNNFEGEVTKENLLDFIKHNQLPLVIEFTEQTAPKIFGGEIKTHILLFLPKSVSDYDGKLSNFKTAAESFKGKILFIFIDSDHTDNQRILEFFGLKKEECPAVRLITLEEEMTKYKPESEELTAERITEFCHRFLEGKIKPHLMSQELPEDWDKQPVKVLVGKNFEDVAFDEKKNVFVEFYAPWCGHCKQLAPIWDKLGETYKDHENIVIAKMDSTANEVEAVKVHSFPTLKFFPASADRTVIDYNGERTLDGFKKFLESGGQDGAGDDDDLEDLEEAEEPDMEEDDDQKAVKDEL", "test": "inhibition of PDI-driven insulin aggregation – biochemical, turbidity, absorbance, cherry-picked samples, dose response (AID 602350)", "assay_type": "functional"}, "[12]": {"biological_target": "Sphingosine 1-phosphate receptor 2 (Homo sapiens, UniProt O95136)", "sequence (O95136 whole entry)": "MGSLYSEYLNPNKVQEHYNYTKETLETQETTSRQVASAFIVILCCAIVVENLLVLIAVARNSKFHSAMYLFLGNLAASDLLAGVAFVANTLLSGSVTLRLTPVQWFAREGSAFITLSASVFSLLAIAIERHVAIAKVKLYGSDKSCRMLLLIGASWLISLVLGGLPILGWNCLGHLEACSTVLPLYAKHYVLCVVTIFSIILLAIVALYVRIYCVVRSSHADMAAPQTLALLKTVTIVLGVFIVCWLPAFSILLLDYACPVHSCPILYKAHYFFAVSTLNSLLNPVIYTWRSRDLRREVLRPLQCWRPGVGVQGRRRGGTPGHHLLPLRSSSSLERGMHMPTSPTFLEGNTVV", "test": "Late-stage fluorescence-based dose-response cell-based counterscreen assay to identify agonists of the Sphingosine 1-Phosphate Receptor 3 (S1P3): Sphingosine 1-Phosphate Receptor 2 (S1P2) agonist assay.", "assay_type": "functional"}, "[13]": {"biological_target": "Sphingosine 1-phosphate receptor 4 (Homo sapiens, UniProt O95977)", "test": "Late-stage fluorescence-based dose-response cell-based counterscreen assay to identify agonists of the Sphingosine 1-Phosphate Receptor 3 (S1P3): Sphingosine 1-Phosphate Receptor 4 (S1P4) agonist assay.", "assay_type": "functional"}, "[14]": {"biological_target": "Mast/stem cell growth factor receptor Kit (Homo sapiens, UniProt P10721)", "sequence (P10721 whole entry)": "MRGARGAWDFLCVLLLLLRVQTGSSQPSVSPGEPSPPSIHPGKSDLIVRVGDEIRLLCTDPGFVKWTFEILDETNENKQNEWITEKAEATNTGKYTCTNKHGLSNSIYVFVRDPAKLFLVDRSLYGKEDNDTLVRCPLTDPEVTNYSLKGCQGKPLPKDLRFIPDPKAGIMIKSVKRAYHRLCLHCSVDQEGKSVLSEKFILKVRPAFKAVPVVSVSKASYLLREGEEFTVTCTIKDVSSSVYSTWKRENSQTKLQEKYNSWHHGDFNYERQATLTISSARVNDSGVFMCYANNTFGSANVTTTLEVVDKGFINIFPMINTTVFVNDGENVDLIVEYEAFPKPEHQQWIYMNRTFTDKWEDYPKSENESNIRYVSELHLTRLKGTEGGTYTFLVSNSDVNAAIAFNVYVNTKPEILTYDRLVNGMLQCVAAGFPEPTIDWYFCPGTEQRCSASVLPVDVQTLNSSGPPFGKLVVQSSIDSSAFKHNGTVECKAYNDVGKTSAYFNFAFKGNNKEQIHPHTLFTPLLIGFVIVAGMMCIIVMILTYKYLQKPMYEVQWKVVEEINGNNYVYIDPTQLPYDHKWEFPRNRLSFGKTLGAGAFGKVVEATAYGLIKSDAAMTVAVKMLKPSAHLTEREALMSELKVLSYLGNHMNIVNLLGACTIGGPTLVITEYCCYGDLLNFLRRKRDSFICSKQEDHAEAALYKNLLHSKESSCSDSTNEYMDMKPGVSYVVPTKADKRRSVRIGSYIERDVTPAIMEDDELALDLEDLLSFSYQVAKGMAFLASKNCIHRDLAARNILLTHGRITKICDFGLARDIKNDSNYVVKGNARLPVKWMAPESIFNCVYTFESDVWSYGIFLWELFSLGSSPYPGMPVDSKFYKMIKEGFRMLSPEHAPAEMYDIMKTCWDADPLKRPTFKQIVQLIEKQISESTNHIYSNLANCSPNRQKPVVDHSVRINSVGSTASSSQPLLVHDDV", "assay_type": "functional"}, "[15]": {"biological_target": "Vascular endothelial growth factor receptor 1 (Homo sapiens, UniProt P17948)", "assay_type": "functional"}, "[16]": {"biological_target": "Macrophage colony-stimulating factor 1 receptor (Homo sapiens, UniProt P07333)", "assay_type": "functional"}, "[17]": {"biological_target": "Vascular endothelial growth factor receptor 3 (Homo sapiens, UniProt P35916)", "assay_type": "functional"}, "[18]": {"biological_target": "Tyrosine-protein kinase ABL1 (Homo sapiens, UniProt P00519)", "assay_type": "functional"}, "[19]": {"biological_target": "Tyrosine-protein kinase Lck (Homo sapiens, UniProt P06239)", "assay_type": "functional"}, "[20]": {"biological_target": "Vascular endothelial growth factor receptor 2 (Homo sapiens, UniProt P35968)", "sequence (P35968 whole entry)": "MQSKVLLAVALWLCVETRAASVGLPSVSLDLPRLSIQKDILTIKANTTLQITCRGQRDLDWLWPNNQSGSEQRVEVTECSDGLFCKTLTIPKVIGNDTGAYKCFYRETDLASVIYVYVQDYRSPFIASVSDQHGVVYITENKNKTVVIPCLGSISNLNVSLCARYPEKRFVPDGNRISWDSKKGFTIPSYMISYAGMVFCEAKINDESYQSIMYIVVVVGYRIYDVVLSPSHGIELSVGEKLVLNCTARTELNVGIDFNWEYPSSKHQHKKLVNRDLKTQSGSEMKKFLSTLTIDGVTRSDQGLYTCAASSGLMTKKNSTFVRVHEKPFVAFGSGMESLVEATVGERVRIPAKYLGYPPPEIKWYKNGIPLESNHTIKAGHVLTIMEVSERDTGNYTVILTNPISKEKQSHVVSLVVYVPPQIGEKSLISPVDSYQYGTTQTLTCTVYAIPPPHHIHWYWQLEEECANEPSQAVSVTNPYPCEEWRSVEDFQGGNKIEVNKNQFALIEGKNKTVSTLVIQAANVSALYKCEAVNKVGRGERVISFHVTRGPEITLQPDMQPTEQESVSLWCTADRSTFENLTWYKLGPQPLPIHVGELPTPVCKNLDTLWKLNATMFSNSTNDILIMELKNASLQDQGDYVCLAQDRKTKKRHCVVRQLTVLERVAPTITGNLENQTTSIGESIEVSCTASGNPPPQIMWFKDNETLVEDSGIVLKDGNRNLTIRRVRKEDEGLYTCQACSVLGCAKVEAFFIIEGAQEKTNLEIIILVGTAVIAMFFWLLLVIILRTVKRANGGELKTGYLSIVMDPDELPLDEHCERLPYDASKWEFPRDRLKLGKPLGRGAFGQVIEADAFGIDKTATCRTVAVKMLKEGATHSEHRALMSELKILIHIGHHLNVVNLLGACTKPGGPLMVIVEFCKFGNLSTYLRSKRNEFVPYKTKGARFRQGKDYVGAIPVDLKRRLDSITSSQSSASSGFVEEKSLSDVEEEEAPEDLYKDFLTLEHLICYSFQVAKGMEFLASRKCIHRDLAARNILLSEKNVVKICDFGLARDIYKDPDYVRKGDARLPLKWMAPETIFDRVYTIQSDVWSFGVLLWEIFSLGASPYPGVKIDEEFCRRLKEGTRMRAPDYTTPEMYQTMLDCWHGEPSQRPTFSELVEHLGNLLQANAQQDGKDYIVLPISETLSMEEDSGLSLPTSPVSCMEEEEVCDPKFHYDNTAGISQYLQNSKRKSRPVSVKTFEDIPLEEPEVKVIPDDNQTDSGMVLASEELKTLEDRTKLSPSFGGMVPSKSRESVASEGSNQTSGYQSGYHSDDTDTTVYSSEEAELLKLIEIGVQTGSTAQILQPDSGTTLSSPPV", "assay_type": "functional"}, "[21]": {"biological_target": "Receptor-type tyrosine-protein kinase FLT3 (Homo sapiens, UniProt P36888)", "sequence (P36888 whole entry)": "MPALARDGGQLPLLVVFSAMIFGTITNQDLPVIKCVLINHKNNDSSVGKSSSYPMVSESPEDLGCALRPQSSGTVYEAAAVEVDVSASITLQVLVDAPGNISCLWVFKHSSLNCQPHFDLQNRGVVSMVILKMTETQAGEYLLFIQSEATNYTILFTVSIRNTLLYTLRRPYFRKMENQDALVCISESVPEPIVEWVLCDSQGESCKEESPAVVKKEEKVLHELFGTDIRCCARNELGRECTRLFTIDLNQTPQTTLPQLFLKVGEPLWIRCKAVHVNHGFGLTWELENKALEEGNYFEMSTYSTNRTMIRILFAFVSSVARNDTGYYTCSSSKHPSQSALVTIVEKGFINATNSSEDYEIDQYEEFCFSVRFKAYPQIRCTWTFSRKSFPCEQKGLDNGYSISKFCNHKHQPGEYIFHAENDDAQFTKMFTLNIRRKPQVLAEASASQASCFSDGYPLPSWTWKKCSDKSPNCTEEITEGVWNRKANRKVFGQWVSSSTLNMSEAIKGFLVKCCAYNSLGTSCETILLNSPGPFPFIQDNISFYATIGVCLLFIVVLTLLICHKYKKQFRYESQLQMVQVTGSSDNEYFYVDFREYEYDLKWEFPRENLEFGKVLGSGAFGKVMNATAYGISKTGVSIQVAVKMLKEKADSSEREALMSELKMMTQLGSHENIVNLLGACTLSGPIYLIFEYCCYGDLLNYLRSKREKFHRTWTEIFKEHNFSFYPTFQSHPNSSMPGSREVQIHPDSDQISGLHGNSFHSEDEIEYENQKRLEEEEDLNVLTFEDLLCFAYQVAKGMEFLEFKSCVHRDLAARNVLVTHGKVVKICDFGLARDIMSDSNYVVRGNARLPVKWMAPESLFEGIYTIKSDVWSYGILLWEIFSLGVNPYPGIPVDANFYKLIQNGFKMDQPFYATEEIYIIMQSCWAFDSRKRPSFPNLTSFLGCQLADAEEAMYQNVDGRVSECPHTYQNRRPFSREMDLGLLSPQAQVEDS", "assay_type": "functional"}, "[22]": {"biological_target": "Tyrosine-protein kinase Blk (Homo sapiens, UniProt P51451)", "assay_type": "functional"}, "[23]": {"biological_target": "Proto-oncogene tyrosine-protein kinase Src (Homo sapiens, UniProt P12931)", "assay_type": "functional"}, "[24]": {"biological_target": "Tyrosine-protein kinase Fyn (Homo sapiens, UniProt P06241)", "assay_type": "functional"}, "[25]": {"biological_target": "Tyrosine-protein kinase Lyn (Homo sapiens, UniProt P07948)", "assay_type": "functional"}}, "note": "Activity calls are given as the source filed them."}
{"smiles": "O=C(CSc1nc(O)c2ccccc2n1)NCc1ccc(Cl)cc1", "values": [{"measurement": "CC50", "setting": "[1]", "result": "> 100 µM (active)"}, {"measurement": "CC50", "setting": "[2]", "result": "> 100 µM (active)"}, {"measurement": "CC50", "setting": "[3]", "result": "> 100 µM (active)"}, {"measurement": "CC50", "setting": "[4]", "result": "> 100 µM (active)"}]}
{"smiles": "COc1ccc(CN2CCc3c([nH]c4ccccc34)C2)c(OC)c1C", "values": [{"measurement": "EC50", "setting": "[5]", "result": "47.6 µM (inactive)"}, {"measurement": "AC50", "setting": "[6]", "result": "1.68 µM (active)"}, {"measurement": "EC50", "setting": "[7]", "result": "> 30.8 µM (inactive)"}, {"measurement": "EC50", "setting": "[8]", "result": "8.4 µM (active)"}, {"measurement": "EC50", "setting": "[9]", "result": "74.3 µM (inactive)"}]}
{"smiles": "COc1cc(-c2oc3cc(O)cc(O)c3c(=O)c2O[C@@H]2O[C@H](COC3O[C@@H](C)[C@H](O)[C@@H](O)[C@H]3O)[C@@H](O)[C@H](O)[C@H]2O)ccc1O", "note": "(stereo not given in full)", "values": [{"measurement": "AC50", "setting": "[10]", "result": "4.62 µM (active)"}, {"measurement": "AC50", "setting": "[11]", "result": "7.96 µM (active)"}]}
{"smiles": "CC1CCCCC1N(C(=O)c1cc(C2CC2)on1)C1CCCCC1C", "note": "(stereo not given)", "values": [{"measurement": "EC50", "setting": "[12]", "result": "> 50 µM (inactive)"}, {"measurement": "EC50", "setting": "[13]", "result": "> 50 µM (inactive)"}]}
{"smiles": "Nc1n[nH]c2cccc(-c3ccc(NC(=O)Nc4cccc(C(F)(F)F)c4)c(F)c3)c12", "values": [{"measurement": "Ki", "setting": "[14]", "result": "0.00251 µM (active)"}, {"measurement": "Ki", "setting": "[15]", "result": "0.000316 µM (active)"}, {"measurement": "Ki", "setting": "[16]", "result": "0.00316 µM (active)"}, {"measurement": "Ki", "setting": "[17]", "result": "0.00316 µM (active)"}, {"measurement": "Ki", "setting": "[18]", "result": "0.316 µM (active)"}, {"measurement": "Ki", "setting": "[19]", "result": "0.2 µM (active)"}, {"measurement": "Ki", "setting": "[20]", "result": "0.000794 µM (active)"}, {"measurement": "Ki", "setting": "[21]", "result": "0.00316 µM (active)"}, {"measurement": "Ki", "setting": "[22]", "result": "0.251 µM (active)"}, {"measurement": "Ki", "setting": "[23]", "result": "0.158 µM (active)"}, {"measurement": "Ki", "setting": "[24]", "result": "0.1 µM (active)"}, {"measurement": "Ki", "setting": "[25]", "result": "0.0398 µM (active)"}]}
